# “And” between values parts separate entries of the source, which are not always exact repeats. Identical values can stand only once. Like-named read-outs stand apart in the source and are kept apart here.
# Tests used:
# HEK-293 EV cells = experiment: Calcium 5 dye [Ca]i assay in HEK-293 empty vector (EV) cells; type: cell-based, human; details: 10 µM; HEK-293 EV cells; percentage of predrug baseline
# Procedure, shortened: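 Tetracycline at 1 µg ml^−1 was added 4 h before testing; cells were loaded with Calcium 5 dye for 1 h and read at 37 °C, with drug added after 1 min baseline (final 0.1% DMSO). The response was the % change from the 60 s baseline after solvent subtraction, and EC50/Emax came from a three-parameter logistic fit, reported as pEC50.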
# human TRPV1 [1] = molecular target: T1, human TRPV1 (Homo sapiens, UniProt Q8NER1); experiment: Calcium 5 dye [Ca]i assay in HEK-293 Flp-In T-REx cells expressing TRPV1 (agonist response); type: cell-based; details: for Elevation of [Ca]i in HEK-293 TRPV1 cells compared with HEK-293 EV cells / Change of Ca5 fluorescence, Mean ± SEM, TRPV1 (10 µM): 10 µM; for Change of Ca5 fluorescence, Mean ± SEM, TRPV1 (10 µM): HEK-293 TRPV1 cells, percentage of predrug baseline; for Change in Ca5 fluorescence, individual experiments (CRC raw data): TRPV1 cells
# T1 construct: Life Technologies (cells); host or cells: Flp-In T-REx HEK-293
# Procedure, shortened: (§1)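 Tetracycline-induced (1 µg ml^−1, 4 h) HEK-293 T-REx cells loaded with Calcium 5 dye plus 1.25 mM probenecid for 1 h; agonist added after 1 min baseline (0.1% DMSO final), fluorescence (485/525 nm) read every 2 s for 5 min at 37 °C. Response as % change from baseline, solvent-subtracted; EC50/Emax from three-parameter logistic fit, given as pEC50.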
# human TRPA1 = molecular target: T2, human TRPA1 (Homo sapiens, UniProt O75762); experiment: Calcium 5 dye [Ca]i assay in HEK-293 Flp-In T-REx cells expressing TRPA1 (agonist response); type: cell-based; details: for Elevation of [Ca]i in HEK-293 TRPA1 cells compared with HEK-293 EV cells: 10 µM (cinnamaldehyde 300 µM); for Change of Ca5 fluorescence, Mean ± SEM, TRPA1 (10 µM): HEK-293 TRPA1 cells, percentage of predrug baseline; for TRPA1 activation at the highest concentration tested: 30 µM; for Emax at 30 µM: HEK293, read-out: Emax ± SEM % TRPA1 (30 µM); for [Ca]i response (change in fluorescence), individual replicates: sheet Figure 4
# T2 construct: Life Technologies (cells); host or cells: Flp-In T-REx HEK-293
# Procedure, shortened: as §1
# human TRPV1 [2] = molecular target: T1, human TRPV1; experiment: PMA (phorbol ester) potentiation of TRPV1 responses in HEK-293 TRPV1 cells; type: cell-based; set-up: key to Drugs alone, individual experiments: change in [Ca]i as % of pre-drug baseline
# Protocol: (§2) Intracellular calcium [Ca]i levels were assessed using the calcium 5 kit from Molecular Devices (# R8186, Sunnyvale, CA, USA) on a FlexStation 3 Microplate Reader (Molecular Devices, Sunnyvale, CA, USA). […] Probenecid (cat # 50027; Biotium) which helps to prevent expulsion of calcium indicator from the cells was added to a final concentration of 1.25 mM. 90 µL of the dye were loaded into each well of the plate and incubated for 1 h before reading in the FlexStation 3 at 37 °C. Fluorescence was recorded every 2 s (λ excitation = 485 nm, λ emission = 525 nm) for 5 min. After 1 min of baseline recording, 20 µL of the drug, dissolved in HBSS with 1% dimethyl sulfoxide (DMSO) (cat # D2650; Sigma-Aldrich, Melbourne, Australia) was added (final DMSO concentration was 0.1% in well).
# We initially determined the effect of PMA, another phorbol ester that is a protein kinase C activator ([Jiang & Fleet, 2012]) on HEK-293 TRPV1 expressing cells.
# (A) Response of HEK-293 TRPV1 expressing cells for PMA at various concentration. […] Drugs were added for the duration of the bar; (D) The effects of PUFAs after potentiation of TRPV1 by PMA. […] Changes in [Ca]i are expressed as percentage of the pre-drug baseline, with the response to PMA alone at 5 min subtracted. The black circles represent the response of PUFAs without PMA pretreatment while the pink circles represent the response of PUFAs after PMA potentiation.
# human TRPV1 [3] = molecular target: T1, human TRPV1; experiment: Pre-incubation with PUFAs or capsazepine, then capsaicin (10 nM) response in HEK-293 TRPV1 cells; type: cell-based; details: for Effect of pre-treatment on the capsaicin response: 10 µM, 5 min exposure, then capsaicin 10 nM; for Post-capsaicin: response to subsequent capsaicin addition, individual experiments: capsaicin 10 nM after 5 min drug 10 µM; for Post-capsaicin: response to subsequent capsaicin addition, individual experiments / Pre-capsaicin: response to first drug, individual experiments: TRPV1 cells; for Pre-capsaicin: response to first drug, individual experiments: drug 10 µM for 5 min
# Protocol: as §2, with “well). […]” for “well).”
# T1 sequence (Q8NER1 whole entry): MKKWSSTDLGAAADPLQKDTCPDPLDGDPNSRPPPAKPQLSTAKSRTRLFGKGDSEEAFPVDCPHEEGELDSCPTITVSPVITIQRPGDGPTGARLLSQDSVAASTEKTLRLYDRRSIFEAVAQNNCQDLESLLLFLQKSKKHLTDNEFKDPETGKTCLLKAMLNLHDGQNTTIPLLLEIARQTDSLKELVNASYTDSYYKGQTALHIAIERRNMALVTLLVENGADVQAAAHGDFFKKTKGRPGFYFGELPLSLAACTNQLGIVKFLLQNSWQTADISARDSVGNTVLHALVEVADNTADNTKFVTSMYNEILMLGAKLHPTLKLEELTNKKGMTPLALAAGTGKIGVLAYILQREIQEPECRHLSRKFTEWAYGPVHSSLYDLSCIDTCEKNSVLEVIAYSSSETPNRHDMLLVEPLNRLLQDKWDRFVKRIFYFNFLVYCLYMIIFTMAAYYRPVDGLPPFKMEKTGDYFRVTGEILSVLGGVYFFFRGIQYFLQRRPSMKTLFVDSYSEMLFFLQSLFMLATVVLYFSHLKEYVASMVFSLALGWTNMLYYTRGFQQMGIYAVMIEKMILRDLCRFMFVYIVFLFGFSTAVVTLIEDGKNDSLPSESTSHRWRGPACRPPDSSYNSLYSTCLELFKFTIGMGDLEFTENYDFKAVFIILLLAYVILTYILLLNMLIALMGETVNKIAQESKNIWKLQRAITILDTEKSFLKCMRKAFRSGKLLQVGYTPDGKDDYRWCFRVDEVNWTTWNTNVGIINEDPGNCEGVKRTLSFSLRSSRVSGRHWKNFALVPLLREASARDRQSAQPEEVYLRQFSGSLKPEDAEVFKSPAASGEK
# T2 sequence (O75762 whole entry): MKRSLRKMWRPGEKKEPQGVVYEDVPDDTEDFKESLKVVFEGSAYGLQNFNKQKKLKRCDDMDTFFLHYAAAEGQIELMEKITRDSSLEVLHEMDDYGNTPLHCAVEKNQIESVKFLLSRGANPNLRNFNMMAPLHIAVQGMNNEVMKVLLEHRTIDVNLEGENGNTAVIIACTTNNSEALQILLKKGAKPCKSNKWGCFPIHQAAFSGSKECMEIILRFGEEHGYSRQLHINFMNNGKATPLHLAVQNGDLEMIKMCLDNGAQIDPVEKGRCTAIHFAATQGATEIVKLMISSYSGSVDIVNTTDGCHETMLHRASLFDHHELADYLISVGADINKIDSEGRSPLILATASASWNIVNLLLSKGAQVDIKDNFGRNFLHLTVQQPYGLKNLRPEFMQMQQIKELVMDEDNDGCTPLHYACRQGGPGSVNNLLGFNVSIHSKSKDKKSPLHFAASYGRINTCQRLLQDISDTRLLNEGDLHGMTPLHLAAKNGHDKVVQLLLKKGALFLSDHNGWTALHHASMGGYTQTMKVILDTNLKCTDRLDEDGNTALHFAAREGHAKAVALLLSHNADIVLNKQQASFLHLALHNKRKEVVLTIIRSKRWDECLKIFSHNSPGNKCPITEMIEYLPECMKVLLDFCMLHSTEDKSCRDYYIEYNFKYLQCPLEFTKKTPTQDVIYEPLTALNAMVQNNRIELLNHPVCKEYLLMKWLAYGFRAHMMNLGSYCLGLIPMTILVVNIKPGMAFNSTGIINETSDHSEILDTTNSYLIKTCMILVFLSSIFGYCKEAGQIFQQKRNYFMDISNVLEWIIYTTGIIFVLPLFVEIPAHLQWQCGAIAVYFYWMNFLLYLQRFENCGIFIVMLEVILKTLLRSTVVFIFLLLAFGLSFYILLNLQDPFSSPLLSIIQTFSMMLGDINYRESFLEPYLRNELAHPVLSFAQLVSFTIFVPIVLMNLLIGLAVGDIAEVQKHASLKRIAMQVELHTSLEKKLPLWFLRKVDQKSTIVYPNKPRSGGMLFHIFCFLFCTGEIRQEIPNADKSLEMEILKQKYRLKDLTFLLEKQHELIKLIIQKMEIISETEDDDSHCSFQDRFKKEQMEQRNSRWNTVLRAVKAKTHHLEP
compound,measurement,setting,value
"CC/C=C\C/C=C\C/C=C\C/C=C\C/C=C\C/C=C\CCC(=O)O [DHA, docosahexaenoic acid]","Change of Ca5 fluorescence, Mean ± SEM, EV (10 µM)",HEK-293 EV cells,11 ± 2%
same,Elevation of [Ca]i in HEK-293 TRPV1 cells compared with HEK-293 EV cells,human TRPV1 [1],did not produce a notable change
same,"Change of Ca5 fluorescence, Mean ± SEM, TRPV1 (10 µM)",human TRPV1 [1],11 ± 2%
same,Emax at 30 µM,"human TRPV1 [1]; HEK293, read-out: Emax ± SEM % TRPV1 (30 µM)",29 ± 0.8%
same,"Change in Ca5 fluorescence, individual experiments (CRC raw data)",human TRPV1 [1]; log concentration -4.52288 (M),30.4293 and 29.6434 and 28.2029 and 25.9718 and 28.1927 and 31.4702
same,"Change in Ca5 fluorescence, individual experiments (CRC raw data)",human TRPV1 [1]; log concentration -5 (M),15.398 and 14.8517 and 2.207 and 13.9869 and 10.4035 and 11.2548
same,"Change in Ca5 fluorescence, individual experiments (CRC raw data)",human TRPV1 [1]; log concentration -5.52288 (M),5.597 and 6.862 and 1.798 and 7.576
same,"Change in Ca5 fluorescence, individual experiments (CRC raw data)",human TRPV1 [1]; log concentration -6 (M),1.539 and 8.081 and 1.374 and 8.45 and 6.148 and 5.676
same,"Change in Ca5 fluorescence, individual experiments (CRC raw data)",human TRPV1 [1]; log concentration -6.52288 (M),0.111 and 3.665 and 0.7828 and 7.557
same,"Change in Ca5 fluorescence, individual experiments (CRC raw data)",human TRPV1 [1]; log concentration -7 (M),8.793 and 7.902 and 1.12 and 9.145
same,Elevation of [Ca]i in HEK-293 TRPA1 cells compared with HEK-293 EV cells,human TRPA1,did not produce a change
same,"Change of Ca5 fluorescence, Mean ± SEM, TRPA1 (10 µM)",human TRPA1,129 ± 81%
same,TRPA1 activation at the highest concentration tested,human TRPA1,activated TRPA1
same,Emax at 30 µM,human TRPA1; highest tested concentration (30 µM) or derived from concentration-response curves (cinnamaldehyde),408 ± 54%
same,"[Ca]i response (change in fluorescence), individual replicates",human TRPA1; concentration -4.52288 (log),600.618 and 528.86 and 310.75 and 311.859 and 419.884 and 278.355
same,"[Ca]i response (change in fluorescence), individual replicates",human TRPA1; concentration -5 (log),508.031 and 185.633 and 12.6409 and 8.196 and 18.5259 and 39.1466
same,"[Ca]i response (change in fluorescence), individual replicates",human TRPA1; concentration -5.52288 (log),5.528 and 1.551 and 4.973 and 2.123
same,"[Ca]i response (change in fluorescence), individual replicates",human TRPA1; concentration -6 (log),3.48 and 2.006 and 3.985 and 2.738 and 3.1287 and 4.255
same,"[Ca]i response (change in fluorescence), individual replicates",human TRPA1; concentration -6.52288 (log),7.112 and 0.3749 and 2.033 and 5.1389
same,"[Ca]i response (change in fluorescence), individual replicates",human TRPA1; concentration -7 (log),8.809 and 1.203 and 5.563 and 5.621
same,TRPV1 response after exposure to PMA,"human TRPV1 [2]; PMA 100 nM, 5 min pretreatment",only observed when a phorbol ester was present
same,"Drugs post-PMA, individual experiments","human TRPV1 [2]; PUFA 10 µM after PMA 100 nM for 5 min, response to PMA alone subtracted",50.0906 and 48.3811 and 19.3352 and 66.6517 and 32.7216 and 44.0204 and 2.991
same,"Drugs alone, individual experiments","human TRPV1 [2]; PUFA 10 µM without PMA pretreatment, TRPV1 cells",3.985 and 5.867 and 0 and 3.833 and 0.4866 and -0.286 and 0.9124 and 2.207
same,Effect of pre-treatment on the capsaicin response,human TRPV1 [3],did not affect
same,"Post-capsaicin: response to subsequent capsaicin addition, individual experiments",human TRPV1 [3],262.478 and 230.552 and 119.965 and 325.766 and 236.554 and 370.087
same,"Pre-capsaicin: response to first drug, individual experiments",human TRPV1 [3],15.3316 and 14.4172 and 9.221 and 4.601 and 11.1415 and 4.871
"CCCCC/C=C\C/C=C\C/C=C\CCCCC(=O)O [γ-LA, γ-linolenic acid]","Change of Ca5 fluorescence, Mean ± SEM, EV (10 µM)",HEK-293 EV cells,9 ± 2%
same,Elevation of [Ca]i in HEK-293 TRPV1 cells compared with HEK-293 EV cells,human TRPV1 [1],did not produce a notable change
same,"Change of Ca5 fluorescence, Mean ± SEM, TRPV1 (10 µM)",human TRPV1 [1],10 ± 1%
same,"Change in Ca5 fluorescence, individual experiments (CRC raw data)","human TRPV1 [1]; log concentration -4.52288 (M), listed as GLA",27.0827 and 92.1911 and 21.8805 and 27.2504 and 40.8812 and 31.4387
same,"Change in Ca5 fluorescence, individual experiments (CRC raw data)","human TRPV1 [1]; log concentration -5 (M), listed as GLA",15.417 and 9.771 and 8.536 and 10.7081 and 5.47 and 8.301
same,"Change in Ca5 fluorescence, individual experiments (CRC raw data)","human TRPV1 [1]; log concentration -5.52288 (M), listed as GLA",2.0403 and 1.257 and 4.6526 and 4.706 and 2.248 and 2.361
same,"Change in Ca5 fluorescence, individual experiments (CRC raw data)","human TRPV1 [1]; log concentration -6 (M), listed as GLA",3.899 and 2.392 and 3.26 and 4.994 and 2.614 and 2.892
same,"Change in Ca5 fluorescence, individual experiments (CRC raw data)","human TRPV1 [1]; log concentration -6.52288 (M), listed as GLA",-0.6308 and 4.773 and 3.415 and 10.3597 and 1.966 and 2.796
same,"Change in Ca5 fluorescence, individual experiments (CRC raw data)","human TRPV1 [1]; log concentration -7 (M), listed as GLA",0.359 and 3.081 and 7.321 and 1.04 and 2.553
same,Elevation of [Ca]i in HEK-293 TRPA1 cells compared with HEK-293 EV cells,human TRPA1,did not produce a change
same,"Change of Ca5 fluorescence, Mean ± SEM, TRPA1 (10 µM)",human TRPA1,112 ± 61%
same,TRPA1 activation at the highest concentration tested,human TRPA1,activated TRPA1
same,Emax at 30 µM,human TRPA1,255 ± 73%
same,"[Ca]i response (change in fluorescence), individual replicates","human TRPA1; concentration -4.52288 (log), listed as GLA",481.429 and 335.153 and 71.3202 and 67.3187 and 162.48 and 414.065
same,"[Ca]i response (change in fluorescence), individual replicates","human TRPA1; concentration -5 (log), listed as GLA",268.343 and 23.3711 and 10.7965 and 8.59 and 23.2369 and 338.225
same,"[Ca]i response (change in fluorescence), individual replicates","human TRPA1; concentration -5.52288 (log), listed as GLA",2.578 and 5.507 and 0.9073 and 7.069 and 268.915
same,"[Ca]i response (change in fluorescence), individual replicates","human TRPA1; concentration -6 (log), listed as GLA",0.8222 and 0.07304 and 2.068 and 3.637 and 4.16 and 7.0167
same,"[Ca]i response (change in fluorescence), individual replicates","human TRPA1; concentration -6.52288 (log), listed as GLA",0.1101 and 1.014 and 7.308 and 0.3513 and 4.285 and 9.421
same,"[Ca]i response (change in fluorescence), individual replicates","human TRPA1; concentration -7 (log), listed as GLA",0.1516 and -0.4942 and 5.21 and 2.462 and 4.3545 and 5.724
same,Effect of pre-treatment on the capsaicin response,human TRPV1 [3],did not affect
same,"Post-capsaicin: response to subsequent capsaicin addition, individual experiments",human TRPV1 [3]; listed as GLA,270.139 and 251.245 and 119.532 and 316.43 and 265.849 and 338.308
same,"Pre-capsaicin: response to first drug, individual experiments",human TRPV1 [3]; listed as GLA,11.5745 and 14.3439 and 14.381 and 3.4398 and 10.3554 and 15.8417
